Among the data in patent US20140073634A1 (Institute For Applied Cancer Science/The University of …, priority 2012, published 2014) are IC50 values, retold here.

Counter-ions that a name gives are not always drawn. Bounds are passed on as bounds.

The subject of this assay is 293T-HRE-GFP-luc cells. Nature of the assay: Cell-based reporter assay for IC50 determinations (HRE-luciferase, hypoxia). Particulars: 6 h, 6 hrs hypoxia (1% O2), luminescence. The procedure, abridged: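 293T-HRE-GFP-luc cells were pre-incubated with serially diluted compounds for 30 min under normoxia, then held 6 hrs in hypoxia (1% O2, 37° C). HRE-driven luciferase read by Steadylite Plus luminescence; IC50 from four-parameter logistic fit.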

As to `N#Cc1cccc(Cn2cc(-c3nc(-c4ccc(OC(F)(F)F)cc4)no3)ccc2=O)c1` [Example 122, 3-((2-oxo-5-(3-(4-(trifluoromethoxy)phenyl)-1,2,4-oxadiazol-5-yl)pyridin-1(2H)-yl)methyl)benzonitrile], the half-maximal inhibitory concentration (IC50) is less than 100 nM.

`CS(=O)(=O)CCCOc1cccc(Cn2cc(-c3nc(-c4ccc(OC(F)(F)F)cc4)co3)ccc2=O)c1` [Example 95, 1-(3-(3-(Methylsulfonyl)propoxy)benzyl)-5-(4-(4-(trifluoromethoxy)phenyl)oxazol-2-yl)pyridin-2(1H)-one] returned an IC50 of less than 100 nM. `O=c1ccc(-c2nc(-c3ccc(OC(F)(F)F)cc3)no2)cn1Cc1cccc(N2CCC(O)CC2)c1` [Example 58, 1-(3-(4-Hydroxypiperidin-1-yl)benzyl)-5-(3-(4-(trifluoromethoxy)phenyl)-1,2,4-oxadiazol-5-yl)pyridin-2(1H)-one] yielded an IC50 of less than 100 nM. In the case of `COCCOc1cccc(Cn2cc(-c3noc(-c4ccc(N5CCCS5(=O)=O)cc4)n3)ccc2=O)c1` [Example 66, 5-(5-(4-(1,1-Dioxidoisothiazolidin-2-yl)phenyl)-1,2,4-oxadiazol-3-yl)-1-(3-(2-methoxyethoxy)benzyl)pyridin-2(1H)-one], the IC50 was in the range of 100 to 1000 nM. Next, `CN1CCN(c2cccc(Cn3cc(-c4noc(-c5ccc(S(=O)(=O)C(F)(F)F)cc5)n4)ccc3=O)c2)CC1` [Example 188, 1-{[3-(4-methylpiperazin-1-yl)phenyl]methyl}-5-[5-(4-trifluoromethanesulfonylphenyl)-1,2,4-oxadiazol-3-yl]-1,2-dihydropyridin-2-one]: less than 100 nM; `CN1CCN(c2cccc(Cn3cccc(C(=O)Nc4ccc(OC(F)(F)F)cc4)c3=O)c2)CC1` [Example 11, 1-Methyl-4-(3-((2-oxo-3-((4-(trifluoromethoxy)phenyl)carbamoyl)pyridin-1(2H)-yl)methyl)phenyl)piperazin-1-ium trifluoroacetate]: less than 100 nM.

`COCCOc1cccc(Cn2cc(-c3noc(-c4ccc5c(c4)CCO5)n3)ccc2=O)c1` [Example 228, 5-[5-(2,3-dihydro-1-benzofuran-5-yl)-1,2,4-oxadiazol-3-yl]-1-{[3-(2-methoxyethoxy)phenyl]methyl}-1,2-dihydropyridin-2-one] yielded an IC50 of 100 to 1000 nM.

In turn, `NS(=O)(=O)c1cccc(Cn2nc(-c3nc(-c4ccc(OC(F)(F)F)cc4)no3)ccc2=O)c1` [Example 119] showed an IC50 of less than 100 nM. As for `O=c1ccc(-c2nc(-c3ccc(OC(F)(F)F)cc3)no2)cn1Cc1cccc([N+](=O)[O-])c1` [Example 146, 1-[(3-nitrophenyl)methyl]-5-{3-[4-(trifluoromethoxy)phenyl]-1,2,4-oxadiazol-5-yl}-1,2-dihydropyridin-2-one], the figure is 100 to 1000 nM; as for `CS(=O)(=O)C1CCN(c2cccc(Cn3nc(-c4nc(-c5ccc(OC(F)(F)F)cc5)no4)ccc3=O)c2)CC1` [Example 173, 2-{[3-(4-methanesulfonylpiperidin-1-yl)phenyl]methyl}-6-{3-[4-(trifluoromethoxy)phenyl]-1,2,4-oxadiazol-5-yl}-2,3-dihydropyridazin-3-one], less than 100 nM; as for `O=C(O)CCc1cccc(Cn2cc(-c3nc(-c4ccc(OC(F)(F)F)cc4)no3)ccc2=O)c1` [Example 47, 3-{3-[(2-oxo-5-{3-[4-(trifluoromethoxy)phenyl]-1,2,4-oxadiazol-5-yl}-1,2-dihydropyridin-1-yl)methyl]phenyl}propanoic acid], 100 to 1000 nM.

For the compound `CN(C)C(=O)/C=C/c1cccc(Cn2cc(-c3nc(-c4ccc(OC(F)(F)F)cc4)no3)ccc2=O)c1` [Example 40, (2E)-N,N-dimethyl-3-{3-[(2-oxo-5-{3-[4-(trifluoromethoxy)phenyl]-1,2,4-oxadiazol-5-yl}-1,2-dihydropyridin-1-yl)methyl]phenyl}prop-2-enamide], the IC50 is less than 100 nM. As to `CNS(=O)(=O)c1cccc(Cn2cc(-c3nc(-c4ccc(OC(F)(F)F)cc4)no3)ccc2=O)c1` [Example 165, N-methyl-3-[(2-oxo-5-{3-[4-(trifluoromethoxy)phenyl]-1,2,4-oxadiazol-5-yl}-1,2-dihydropyridin-1-yl)methyl]benzene-1-sulfonamide], the concentration for half-maximal inhibition (IC50) was less than 100 nM.

In the case of `O=c1ccc(-c2cc(-c3ccc(OC(F)(F)F)cc3)no2)cn1Cc1cccc(N2CCS(=O)(=O)CC2)c1` [Example 251, 1-(3-(1,1-dioxidothiomorpholino)benzyl)-5-(3-(4-(trifluoromethoxy)phenyl)isoxazol-5-yl)pyridin-2(1H)-one], the half-maximal inhibitory concentration (IC50) is less than 100 nM. Next, `COCCOc1cccc(Cn2cc(-c3noc(-c4ccc(C#N)cc4)n3)ccc2=O)c1` [Example 194, 4-[3-(1-{[3-(2-methoxyethoxy)phenyl]methyl}-6-oxo-1,6-dihydropyridin-3-yl)-1,2,4-oxadiazol-5-yl]benzonitrile]: less than 100 nM; `COCCOc1cccc(Cn2cc(-c3noc(-c4cnc(N(C)C)nc4)n3)ccc2=O)c1` [Example 232, 5-{5-[2-(dimethylamino)pyrimidin-5-yl]-1,2,4-oxadiazol-3-yl}-1-{[3-(2-methoxyethoxy)phenyl]methyl}-1,2-dihydropyridin-2-one]: less than 100 nM. In turn, `O=c1ccc(-c2cc(-c3ccc(OC(F)(F)F)cc3)no2)cn1Cc1cccc(NC2CCCS(=O)(=O)C2)c1` (stereo not shown) [Example 254, 1-(3-((1,1-dioxidotetrahydro-2H-thiopyran-3-yl)amino)benzyl)-5-(3-(4-(trifluoromethoxy)phenyl)isoxazol-5-yl)pyridin-2(1H)-one] registered an IC50 of less than 100 nM. `CS(=O)(=O)c1cccc(Cn2nc(-c3nc(-c4ccc(OC(F)(F)F)cc4)no3)ccc2=O)c1` [Example 118, 2-(3-(methylsulfonyl)benzyl)-6-(3-(4-(trifluoromethoxy)phenyl)-1,2,4-oxadiazol-5-yl)pyridazin-3(2H)-one] gave an IC50 of less than 100 nM. Consider `CN1CCN(c2cc(Cn3cc(-c4cc(-c5ccc(OC(F)(F)F)cc5)no4)ccc3=O)ccn2)CC1` [Example 97b, 1-((2-(4-methylpiperazin-1-yl)pyridin-4-yl)methyl)-5-(3-(4-(trifluoromethoxy)phenyl)isoxazol-5-yl)pyridin-2(1H)-one], for which the IC50 is less than 100 nM. Compound `Cc1ccc(-c2nc(-c3ccc(OC(F)(F)F)cc3)no2)c(=O)n1Cc1cccc(S(C)(=O)=O)c1` [Example 267, 1-[(3-methanesulfonylphenyl)methyl]-6-methyl-3-{3-[4-(trifluoromethoxy)phenyl]-1,2,4-oxadiazol-5-yl}-1,2-dihydropyridin-2-one] displayed an IC50 of 100 to 1000 nM. With `O=c1ccc(-c2nc(-c3ccc(OC(F)(F)F)cc3)no2)nn1Cc1cccc(OCCO)c1` [Example 179, 2-{[3-(2-hydroxyethoxy)phenyl]methyl}-6-{3-[4-(trifluoromethoxy)phenyl]-1,2,4-oxadiazol-5-yl}-2,3-dihydropyridazin-3-one], the half-maximal inhibitory concentration (IC50) is less than 100 nM. For `N#CC1CCN(c2cc(Cn3cc(-c4nc(-c5ccc(OC(F)(F)F)cc5)no4)ccc3=O)ccn2)CC1` [Example 153, 1-{4-[(2-oxo-5-{3-[4-(trifluoromethoxy)phenyl]-1,2,4-oxadiazol-5-yl}-1,2-dihydropyridin-1-yl)methyl]pyridin-2-yl}piperidine-4-carbonitrile], the half-inhibitory concentration (IC50) was less than 100 nM.

Compound `COCCOc1cccc(Cn2cc(-c3noc(-c4ccc(C5CC5)cc4)n3)ccc2=O)c1` [Example 67, 5-(5-(4-Cyclopropylphenyl)-1,2,4-oxadiazol-3-yl)-1-(3-(2-methoxyethoxy)benzyl)pyridin-2(1H)-one] yielded an IC50 of less than 100 nM.

For the compound `O=c1ccc(-c2nc(-c3ccc(OC(F)(F)F)cc3)no2)nn1Cc1cccc(N2CCOCC2)c1` [Example 14, 2-(3-Morpholinobenzyl)-6-(3-(4-(trifluoromethoxy)phenyl)-1,2,4-oxadiazol-5-yl)pyridazin-3(2H)-one], the concentration for half-maximal inhibition (IC50) was less than 100 nM. As to `COC(=O)Cc1cccc(Cn2nc(-c3nc(-c4ccc(OC(F)(F)F)cc4)no3)ccc2=O)c1` [Example 29, Methyl 2-{3-[(6-oxo-3-{3-[4-(trifluoromethoxy)phenyl]-1,2,4-oxadiazol-5-yl}-1,6-dihydropyridazin-1-yl)methyl]phenyl}acetate], the IC50 was less than 100 nM. `CC(C)(O)c1cccc(Cn2cc(-c3nnc(-c4ccc(S(=O)(=O)C(F)(F)F)cc4)o3)ccc2=O)c1` [Example 260, 1-{[3-(2-hydroxypropan-2-yl)phenyl]methyl}-5-[5-(4-trifluoromethanesulfonylphenyl)-1,3,4-oxadiazol-2-yl]-1,2-dihydropyridin-2-one]: the half-inhibitory concentration (IC50) fell in the range of 100 to 1000 nM. As for `COCCOc1cccc(Cn2cc(-c3noc(-c4ccc(S(=O)(=O)CCOC)cc4)n3)ccc2=O)c1` [Example 237, 5-{5-[4-(2-methoxyethanesulfonyl)phenyl]-1,2,4-oxadiazol-3-yl}-1-{[3-(2-methoxyethoxy)phenyl]methyl}-1,2-dihydropyridin-2-one], the IC50 fell in the range of 100 to 1000 nM. On to `CS(=O)(=O)CCCOc1cccc(Cn2cc(-c3nnc(-c4ccc(S(=O)(=O)C(F)(F)F)cc4)o3)ccc2=O)c1` [Example 259, 1-{[3-(3-methanesulfonylpropoxy)phenyl]methyl}-5-[5-(4-trifluoromethanesulfonylphenyl)-1,3,4-oxadiazol-2-yl]-1,2-dihydropyridin-2-one], for which the IC50 was less than 100 nM.

Turning to `COCCOc1cccc(Cn2cc(-c3noc(-c4ccc(C(=O)N(C)C)cc4)n3)ccc2=O)c1` [Example 218, 4-[3-(1-{[3-(2-methoxyethoxy)phenyl]methyl}-6-oxo-1,6-dihydropyridin-3-yl)-1,2,4-oxadiazol-5-yl]-N,N-dimethylbenzamide], the IC50 was in the range of 100 to 1000 nM. In the case of `COCCOc1cccc(Cn2cc(-c3noc(-c4ccc5[nH]ccc5c4)n3)ccc2=O)c1` [Example 225, 5-[5-(1H-indol-5-yl)-1,2,4-oxadiazol-3-yl]-1-{[3-(2-methoxyethoxy)phenyl]methyl}-1,2-dihydropyridin-2-one], the IC50 was in the range of 100 to 1000 nM. As for `COCCOc1cccc(Cn2cc(-c3noc(-c4ccc(Cl)cc4)n3)ccc2=O)c1` [Example 198, 5-[5-(4-chlorophenyl)-1,2,4-oxadiazol-3-yl]-1-{[3-(2-methoxyethoxy)phenyl]methyl}-1,2-dihydropyridin-2-one], the figure is less than 100 nM.
